Data reported in US6458781B1, “Substituted diarylalkyl amides as calcium channel antagonists” (priority 1998, dated 2002).
Structures can show the parent of a compound that is named as a salt.

Legend:
[1] = molecular target: T1, N-type Ca2+ channels in cultured superior cervical ganglion (SCG) neurons (Rattus norvegicus, UniProt Q02294); assay: Calcium current in superior cervical ganglion neurons (whole-cell voltage clamp); type: cell-based; details: for inhibition at 1 µM: read-out: SCG Ca, % blockage at 1 μM; for inhibition at 10 µM: read-out: SCG Ca, % blockage at 10 μM; for IC50: read-out: SCG Ca, IC50
T1 construct: from tissue
Experimental: (§1) Electrophysiological techniques were used to measure the effects of experimental compounds on voltage-gated Ca^2+, […] , and K^+ channels. […] Sodium and potassium channel currents were measured from acutely dissociated SCG neurons.
(§2) Dissociation of the neurons from the ganglia was accomplished using a 30 to 45 minute treatment in 0.25% trypsin, similar to methods outlined in Higgins, et al. (see Higgins D. et al. “Tissue culture of mammalian autonomic neurons.” In Banker G. and Goslin K. (Eds), Culturing Nerve Cells, Cambridge, Mass., MIT Press [1991]).
(§3) Ca^2+, Na^+, and K^+ channel currents in SCG neurons were measured using conventional single electrode whole-cell voltage-clamp techniques, outlined in Hamill et al., (see Hamill O. P. et al. “Improved patch-clamp techniques for high resolution current recordings from cells and cell-free membrane patches.”Pflugers Arch., 1981;391:85-100). For Ca^2+ channel experiments, the external bathing solution contained tetraethylammonium chloride (100 mM), choline chloride (52 mM), NaCl (15 mM), HEPES (10 mM), glucose (5.6 mM), CaCl2 (2 mM), and MgCl2 (0.8 mM), pH 7.35 with KOH; with the internal pipette solution containing cesium methane sulfonate (140 mM), EGTA (10 mM), and HEPES (10 mM), supplemented with 5 mM Mg^2+-ATP on the day of the experiment, pH 7.4 with CsOH. For Na^+ and K^+ channel experiments, the external bathing solution contained NaCl (150 mM), KCl (5 mM), MgCl2 (1.1 mM), CaCl2 (2.6 mM), Na-HEPES (10 mM), and glucose (10 mM), pH 7.4; with the internal pipette solution containing KCl (80 mM), K-gluconate (50 mM), HEPES (10 mM), and EGTA (10 mM), pH 7.4 with KOH. Experimental compounds were diluted into the external solution and applied to the soma of cells by local perfusion from large diameter (20-50 μm) glass micropipettes or from a U-tube applicator.
After obtaining a whole-cell recording, Ca^2+ channels were elicited by stepping to test potentials between −40 and +20 mV for 120 msec from the holding potential of −90 mV to determine if the amplitude of the current and clamp control were adequate for evaluation of drug effects. Ca^2+ channel currents were evoked by stepping from a holding potentials between −65 mV and −55 mV to a test potential of +20 mV for 150 msec every 40 seconds. The amplitude of the Ca^2+ channel currents were compared before and during drug application and drug effects expressed as percent inhibition of the amplitude of control currents.

[2] = tested on: Na+ channels in SCG neurons; assay: Sodium current in superior cervical ganglion neurons (whole-cell voltage clamp); type: cell-based, rat
Experimental: as §1, §2, §3
For Na^+ and K^+ channel currents, following the determination of the I/V relationship for each cell in control solution, currents were evoked from a holding potential between −65 and −55 mV by stepping every 10 sec to a test potential of either 0 mV for Na^+ or +50 mV for K^+ current for a duration of 35 msec. Peak inward current was measured for Na^+ and sustained current for K^+ channel currents. […] Test compounds were applied until steady-state block was achieved. Data were expressed as percent inhibition of control amplitudes for Na^+ and K^+ channel currents.

[3] = tested on: electroshock-induced tonic extensor seizures in CF-1 mice; assay: Maximal electroshock testing; type: in vivo; details: protected/tested
Experimental: Maximal Electroshock Testing
In this test, four representative compounds were tested for their anticonvulsant effects using the procedure described below.
Male CF-1 mice, 20 to 28 g, from Charles River Laboratories, Portage, Mich. were used in all experiments. Groups of 10 mice each were given various intravenous doses of test compound in aqueous solution with 10% Emulphan® Surfactant in a volume of 10 mL/kg of body weight. Electroshock was delivered by corneal electrodes with 60 Hz alternating current (50 mA root-mean-squared for 0.2 seconds) using a constant-current stimulator (Wahlquist Instruments, Salt Lake City, Utah). Untreated or saline-treated mice reliably had tonic extensor seizures with rearward extension of hindlimbs more than 3 seconds. These methods are similar to those published by Krall R. L.; Penry J. K.; White B. G.; and Kupferberg H. K. Antiepileptic Drug Development II. Anticonvulsant Drug Screening, Epilepsia, 1978; 19:409-428.

[4] = 10 mg/Kg iv, 15 min posttreatment
[5] = 30 mg/Kg iv, 15 min posttreatment

T1 sequence (Q02294 whole entry): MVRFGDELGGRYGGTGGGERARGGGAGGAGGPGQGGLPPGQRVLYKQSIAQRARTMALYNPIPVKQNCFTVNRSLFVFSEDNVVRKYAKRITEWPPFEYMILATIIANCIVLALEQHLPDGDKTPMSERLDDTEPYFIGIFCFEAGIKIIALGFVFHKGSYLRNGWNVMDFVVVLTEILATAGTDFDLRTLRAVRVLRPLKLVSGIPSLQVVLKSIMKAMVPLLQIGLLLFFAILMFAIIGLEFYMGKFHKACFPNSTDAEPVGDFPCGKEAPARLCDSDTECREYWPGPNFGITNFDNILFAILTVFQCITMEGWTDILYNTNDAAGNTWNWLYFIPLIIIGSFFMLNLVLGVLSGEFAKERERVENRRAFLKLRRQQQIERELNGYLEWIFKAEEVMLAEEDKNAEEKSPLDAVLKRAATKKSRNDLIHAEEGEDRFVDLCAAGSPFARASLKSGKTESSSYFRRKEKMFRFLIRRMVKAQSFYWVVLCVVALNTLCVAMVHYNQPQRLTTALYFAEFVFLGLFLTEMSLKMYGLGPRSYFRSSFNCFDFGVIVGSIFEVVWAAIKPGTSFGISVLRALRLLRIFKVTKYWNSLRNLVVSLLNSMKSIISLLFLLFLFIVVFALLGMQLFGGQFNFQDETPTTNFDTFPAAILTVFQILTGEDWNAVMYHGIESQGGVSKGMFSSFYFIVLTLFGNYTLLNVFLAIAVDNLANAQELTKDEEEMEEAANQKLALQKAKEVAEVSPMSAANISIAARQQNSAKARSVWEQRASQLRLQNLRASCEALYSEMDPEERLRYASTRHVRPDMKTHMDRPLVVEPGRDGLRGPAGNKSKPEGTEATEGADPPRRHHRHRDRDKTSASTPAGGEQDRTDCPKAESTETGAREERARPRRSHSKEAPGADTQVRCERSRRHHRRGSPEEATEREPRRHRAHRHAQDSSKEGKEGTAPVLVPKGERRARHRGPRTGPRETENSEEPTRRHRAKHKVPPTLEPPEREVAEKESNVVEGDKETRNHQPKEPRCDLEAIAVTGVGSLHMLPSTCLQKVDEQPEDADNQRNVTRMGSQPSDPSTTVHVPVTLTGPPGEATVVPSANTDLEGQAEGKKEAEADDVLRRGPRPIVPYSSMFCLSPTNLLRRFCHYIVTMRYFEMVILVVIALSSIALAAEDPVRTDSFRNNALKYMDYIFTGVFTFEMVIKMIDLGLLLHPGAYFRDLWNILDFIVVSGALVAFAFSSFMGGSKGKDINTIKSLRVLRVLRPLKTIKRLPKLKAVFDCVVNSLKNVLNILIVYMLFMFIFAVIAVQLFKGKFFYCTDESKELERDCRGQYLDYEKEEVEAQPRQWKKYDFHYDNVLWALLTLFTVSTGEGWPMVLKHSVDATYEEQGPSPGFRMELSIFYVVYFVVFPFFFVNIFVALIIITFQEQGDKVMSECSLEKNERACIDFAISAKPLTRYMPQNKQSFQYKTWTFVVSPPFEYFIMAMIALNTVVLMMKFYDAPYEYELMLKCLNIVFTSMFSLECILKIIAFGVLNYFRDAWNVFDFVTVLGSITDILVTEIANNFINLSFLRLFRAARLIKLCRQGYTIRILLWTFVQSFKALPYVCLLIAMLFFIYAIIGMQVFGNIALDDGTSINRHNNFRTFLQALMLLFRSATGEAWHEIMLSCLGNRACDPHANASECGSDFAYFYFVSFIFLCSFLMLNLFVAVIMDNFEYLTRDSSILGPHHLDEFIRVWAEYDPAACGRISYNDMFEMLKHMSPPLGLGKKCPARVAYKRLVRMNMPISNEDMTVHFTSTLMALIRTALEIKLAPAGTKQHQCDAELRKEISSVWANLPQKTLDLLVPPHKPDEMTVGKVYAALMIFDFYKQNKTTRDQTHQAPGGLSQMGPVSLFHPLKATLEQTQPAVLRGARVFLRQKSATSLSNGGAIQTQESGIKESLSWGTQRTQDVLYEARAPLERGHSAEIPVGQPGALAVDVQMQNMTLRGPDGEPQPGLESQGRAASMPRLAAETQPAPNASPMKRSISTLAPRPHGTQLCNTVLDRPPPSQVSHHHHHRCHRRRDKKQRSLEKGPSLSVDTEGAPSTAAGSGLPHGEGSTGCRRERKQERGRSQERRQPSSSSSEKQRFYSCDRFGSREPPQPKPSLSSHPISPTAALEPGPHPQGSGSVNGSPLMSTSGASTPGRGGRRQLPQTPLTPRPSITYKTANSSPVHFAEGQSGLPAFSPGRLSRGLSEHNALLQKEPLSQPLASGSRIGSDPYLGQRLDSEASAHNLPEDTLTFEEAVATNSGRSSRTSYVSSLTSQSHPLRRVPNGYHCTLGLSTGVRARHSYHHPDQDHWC
T1 sequence (P54290 25-944 partner limits assumed): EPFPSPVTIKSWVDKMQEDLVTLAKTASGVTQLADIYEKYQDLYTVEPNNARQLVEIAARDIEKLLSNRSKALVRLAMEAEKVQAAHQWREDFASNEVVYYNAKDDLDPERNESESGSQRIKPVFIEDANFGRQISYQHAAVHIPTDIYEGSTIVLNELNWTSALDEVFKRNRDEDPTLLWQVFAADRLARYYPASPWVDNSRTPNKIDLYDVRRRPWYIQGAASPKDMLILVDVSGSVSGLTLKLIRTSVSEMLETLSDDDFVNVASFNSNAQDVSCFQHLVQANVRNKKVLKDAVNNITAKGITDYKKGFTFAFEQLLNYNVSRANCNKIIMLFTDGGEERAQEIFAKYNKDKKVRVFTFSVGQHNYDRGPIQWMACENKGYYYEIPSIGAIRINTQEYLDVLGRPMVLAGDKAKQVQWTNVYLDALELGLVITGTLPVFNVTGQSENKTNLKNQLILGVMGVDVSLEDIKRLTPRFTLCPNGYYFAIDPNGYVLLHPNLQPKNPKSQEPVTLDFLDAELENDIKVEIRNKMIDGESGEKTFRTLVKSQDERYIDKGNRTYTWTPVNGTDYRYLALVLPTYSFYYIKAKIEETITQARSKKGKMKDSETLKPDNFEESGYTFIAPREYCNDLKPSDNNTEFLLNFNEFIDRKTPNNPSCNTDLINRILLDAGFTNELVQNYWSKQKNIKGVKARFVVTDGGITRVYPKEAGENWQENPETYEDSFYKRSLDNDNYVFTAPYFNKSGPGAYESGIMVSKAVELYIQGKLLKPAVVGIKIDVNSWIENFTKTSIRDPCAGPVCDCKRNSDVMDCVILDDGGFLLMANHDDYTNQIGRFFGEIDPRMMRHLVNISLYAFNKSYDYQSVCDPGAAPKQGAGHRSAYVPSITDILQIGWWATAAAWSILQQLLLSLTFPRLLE
T1 sequence (P54290 945-1091 partner limits assumed): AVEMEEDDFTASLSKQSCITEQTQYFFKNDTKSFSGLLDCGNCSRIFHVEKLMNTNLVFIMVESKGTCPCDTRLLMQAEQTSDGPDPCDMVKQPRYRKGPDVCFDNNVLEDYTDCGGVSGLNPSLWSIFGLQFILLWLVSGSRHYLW
T1 sequence (P54287 whole entry partner): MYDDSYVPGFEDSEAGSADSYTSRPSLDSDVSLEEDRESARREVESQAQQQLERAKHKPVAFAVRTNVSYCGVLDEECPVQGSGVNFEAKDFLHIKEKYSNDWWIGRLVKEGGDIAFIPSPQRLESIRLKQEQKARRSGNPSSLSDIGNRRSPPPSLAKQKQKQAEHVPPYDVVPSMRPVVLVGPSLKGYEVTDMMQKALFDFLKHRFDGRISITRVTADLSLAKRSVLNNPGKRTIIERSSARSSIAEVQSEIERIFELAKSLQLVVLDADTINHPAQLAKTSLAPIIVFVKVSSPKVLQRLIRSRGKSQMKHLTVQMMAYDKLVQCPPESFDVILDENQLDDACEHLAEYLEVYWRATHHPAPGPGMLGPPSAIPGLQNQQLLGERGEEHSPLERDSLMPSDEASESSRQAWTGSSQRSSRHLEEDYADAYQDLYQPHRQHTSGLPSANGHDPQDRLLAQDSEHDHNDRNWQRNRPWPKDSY

Row | inhibition at 1 µM [1] [%] | inhibition at 10 µM [1] [%] | SMILES | SCG Na, % blockage at 10 μM [2] [% @ 10] | further results
1 | 45 | 98 | CC(C)C[C@H](N)C(=O)NCCCC(c1ccc(F)cc1)c1ccc(F)cc1 [Example 7, (S)-2-Amino-4-methyl-pentanoic acid [4,4-bis-(4-fluoro-phenyl)-butyl]-amide monohydrochloride] |  | 
2 |  |  | CC(C)C[C@H](NCC1CCCCC1)C(=O)NCCCC(c1ccc(F)cc1)c1ccc(F)cc1 [Example 8, (S)-2-(Cyclohexylmethyl-amino)-4-methyl-pentanoic acid [4,4-bis-(4-fluoro-phenyl)-butyl]-amide monohydrochloride] | 94 | IC50 [1]: 2.4 µM; Number of Mice Protected from Tonic Convulsions [3, 4]: 0/4; Number of Mice Protected from Tonic Convulsions ([3]; 10 mg/Kg iv, 45 min posttreatment): 0/5; Number of Mice Protected from Tonic Convulsions [3, 5]: 4/4; Number of Mice Protected from Tonic Convulsions ([3]; 30 mg/Kg iv, 45 min posttreatment): 2/2
3 |  |  | CC(C)=CCN[C@@H](CC(C)C)C(=O)NCCCC(c1ccc(F)cc1)c1ccc(F)cc1 [Example 9, (S)-4-Methyl-2-(3-methyl-but-2-enylamino)-pentanoic acid [4,4-bis-(4-fluoro-phenyl)-butyl]-amide monohydrochloride] |  | IC50 [1]: 53 µM; IC50 [2]: 8.5 µM; Number of Mice Protected from Tonic Convulsions [3, 4]: 10/10; Number of Mice Protected from Tonic Convulsions [3, 5]: 10/10
4 |  | 8 | CC(C)C[C@@H](C(=O)NCCCC(c1ccc(F)cc1)c1ccc(F)cc1)N(C)Cc1ccc(C(C)(C)C)cc1.Cl [Example 14, (S)-2-[(4-tert-Butyl-benzyl)-methyl-amino]-4-methyl-pentanoic acid [4,4-bis-(4-fluoro-phenyl)-butyl]-amide monohydrochloride] |  | melting point: 87 to 95 °C
5 | 55 | 88 | CC(C)CCN(C)[C@@H](CC(C)C)C(=O)NCCCC(c1ccc(F)cc1)c1ccc(F)cc1 [Example 28, (S)-4-Methyl-2-[methyl-(3-methyl-butyl)-amino]-pentanoic acid [4,4-bis-(4-fluoro-phenyl)-butyl]-amide monohydrochloride] | 90 | SCG Na, % blockage at 1 μM ([2]; at 1 μM): 5% @ 1
6 | 2.5 | 62 | CC(C)C[C@H](NC(=O)N1CCCCCC1)C(=O)N1CCN(C(c2ccc(F)cc2)c2ccc(F)cc2)CC1 [Example 31, (S)-Azepane-1-carboxylic acid (1-{4-[bis-(4-fluoro-phenyl)-methyl]-piperazine-1-carbonyl}-3-methyl-butyl)-amide] |  | 
7 | 18 | 72 | CC(C)[C@H](NC(=O)N1CCCCCC1)C(=O)N1CCN(C(c2ccc(F)cc2)c2ccc(F)cc2)CC1 [Example 33, (S)-Azepane-1-carboxylic acid (1-{4-[bis-(4-fluoro-phenyl)-methyl]-piperazine-1-carbonyl}-2-methyl-propyl)-amide] | 22 | 
8 | 18 | 81 | CC(C)C[C@@H](CN1CCN(C(c2ccc(F)cc2)c2ccc(F)cc2)CC1)NC(=O)N1CCCCCC1 [Example 36, (S)-Azepane-1-carboxylic acid (1-{4-[bis-(4-fluoro-phenyl)-methyl]-piperazin-1-ylmethyl}-3-methyl-butyl)-amide] | 81 | 
9 | 15 | 75 | CC(C)C[C@@H](C(=O)N1CCN(C(c2ccc(F)cc2)c2ccc(F)cc2)CC1)N(C)C [Example 39, (S)-1-{4-[Bis-(4-fluoro-phenyl)-methyl]-piperazin-1-yl}-2-dimethylamino-4-methyl-pentan-1-one dihydrochloride] |  | 

Row | SMILES | inhibition at 1 µM [1] [%] | inhibition at 10 µM [1] [%] | SCG Na, % blockage at 10 μM [2] [% @ 10] | further results
10 | CN[C@@H](CC(C)C)C(=O)NCCCC(c1ccc(F)cc1)c1ccc(F)cc1 [Example 12, (S)-4-Methyl-2-methylamino-pentanoic acid [4,4-bis-(4-fluoro-phenyl)-butyl]-amide monohydrochloride] | 3 | 94 | 87 | 
